Where two headings read alike, the source gives them in different places.
How the values were obtained:
L. major [1] = test: ChEMBL dataset of pIC50 values against L. major used for the RF model (Table S1); format: cell-based, Leishmania major; further: call rule not given here
L. major [2] = tested on: L. major; design: method as in ChEMBL; conditions: ref ChEMBL, cited from earlier work
[3] = Active/Inactive class assigned to ChemBL structures for Random forest model construction (Table S1)
[4] = ChemBL structures with pIC50 values used for Random forest model construction (Table S1)
[5] = Active/Inactive class assigned to the ChEMBL pIC50 value for Random forest model construction, ref ChEMBL
[6] = ChemBL structures with pIC50 values used for Random forest model construction, L. major

SMILES: Cc1cccc2cc(/C=C/C(=O)c3cc(Cl)sc3Cl)c(Cl)nc12 [CHEMBL1940868]
- Outcome (L. major [1]; [3]): Active
- pIC50 Value (L. major [2]; [4]): 5.65

SMILES: Cc1ccc2cc(C3CC(c4ccc(C)s4)=NN3)c(Cl)nc2c1 (stereo not shown) [CHEMBL2236138]
- Outcome (L. major [1]; [3]): Active
- pIC50 Value (L. major [2]; [4]): 5.58

SMILES: COc1ccccc1C(=O)N/N=C/c1cccc(O)c1O [CHEMBL2382046]
- Outcome (L. major [1]; [5]): Inactive
- pIC50 Value (L. major [2]; [6]): 4.17

SMILES: O=C(c1ccc(Cl)s1)N1CCN(c2nnc(-c3ccc([N+](=O)[O-])s3)s2)CC1 [CHEMBL464870]
- Outcome (L. major [1]; [5]): Inactive
- pIC50 Value (L. major [2]; [6]): 4.62

SMILES: c1ccc(-c2nc3ccccn3c2-c2ccsc2)cc1 [CHEMBL2151872]
- Outcome (L. major [1]; [5]): Inactive
- pIC50 Value (L. major [2]; [6]): 4.84

SMILES: CCc1ccc(-[n+]2c(C)cc3cc(OC)cc(OC)c3c2C)cc1.F[B-](F)(F)F [CHEMBL479649]
- Outcome (L. major [1]; [5]): Active
- pIC50 Value (L. major [2]; [6]): 5.26

SMILES: CN(C)CCNc1nccn2c(I)c(-c3ccccc3)nc12 [CHEMBL3634357]
- Outcome (L. major [1]; [5]): Inactive
- pIC50 Value (L. major [2]; [6]): 4.62

SMILES: COc1cc(C)cc2c1C(=O)C=C(c1c(C)c(OC)c3ccc(O)c(OC)c3c1O)C2=O [CHEMBL2071223]
- Outcome (L. major [1]; [3]): Active
- pIC50 Value (L. major [2]; [4]): 9.82

SMILES: NP(=O)(OCc1ccc([N+](=O)[O-])cc1C(F)(F)F)N(CCCl)CCCl (stereo not shown) [CHEMBL1257016]
- Outcome (L. major [1]; [5]): Active
- pIC50 Value (L. major [2]; [6]): 5.23

SMILES: O=C(O)CN1CN(CCO)CSC1=S [CHEMBL4290046]
- Outcome (L. major [1]; [5]): Inactive
- pIC50 Value (L. major [2]; [6]): 4.40

SMILES: CCCCCCN(C)c1ccc(Nc2c3ccccc3nc3ccccc23)cc1 [CHEMBL415472]
- Outcome (L. major [1]; [3]): Active
- pIC50 Value (L. major [2]; [4]): 6.52

SMILES: CCN(C)c1ccc(Nc2c3ccccc3nc3ccccc23)cc1 [CHEMBL86724]
- Outcome (L. major [1]; [3]): Active
- pIC50 Value (L. major [2]; [4]): 6.00

SMILES: CCN(CC)CCCc1ccc(Nc2c3ccccc3nc3ccccc23)cc1 [CHEMBL89519]
- Outcome (L. major [1]; [3]): Active
- pIC50 Value (L. major [2]; [4]): 6.52

SMILES: COc1ccc(OC)c(Nc2ncnc3ccc([N+](=O)[O-])cc23)c1 [CHEMBL3758611]
- Outcome (L. major [1]; [5]): Inactive
- pIC50 Value (L. major [2]; [6]): 4.91

SMILES: CC(=O)C1=C(C)NC(=S)NC1c1ccccc1 (stereo not shown) [CHEMBL2359517]
- Outcome (L. major [1]; [3]): Active
- pIC50 Value (L. major [2]; [4]): 5.50

SMILES: C[C@@H]1CC[C@H]2[C@@H](C)C(=O)O[C@@H]3O[C@@]4(C)CC[C@@H]1[C@]32OO4 [CHEMBL269671]
- Outcome (L. major [1]; [3]): Active
- pIC50 Value (L. major [2]; [4]): 6.12

SMILES: COc1ccc([C@@H]2COc3c(ccc(O)c3CC=C(C)C)C2)c(OC)c1O [CHEMBL501755]
- Outcome (L. major [1]; [5]): Active
- pIC50 Value (L. major [2]; [6]): 5.10

SMILES: CCCCCCNc1ccc(Nc2c3ccccc3nc3ccccc23)cc1OC [CHEMBL88507]
- Outcome (L. major [1]; [3]): Active
- pIC50 Value (L. major [2]; [4]): 6.40

SMILES: COc1ccccc1C(=O)N/N=C/c1cc(O)ccc1O [CHEMBL2382047]
- Outcome (L. major [1]; [5]): Inactive
- pIC50 Value (L. major [2]; [6]): 4.46

SMILES: CC(=O)N1CCN(c2ccc(OC[C@H]3CO[C@](Cn4ccnc4)(c4ccc(Cl)cc4Cl)O3)cc2)CC1 (racemic) [CHEMBL75]
- Outcome (L. major [1]; [5]): Inactive
- pIC50 Value (L. major [2]; [6]): 4.62

SMILES: COc1ccc(CNC(=N)c2ccc(N3CCN(c4nnc(-c5ccc([N+](=O)[O-])o5)s4)CC3)cc2)cc1.Cl [CHEMBL1783207]
- Outcome (L. major [1]; [5]): Inactive
- pIC50 Value (L. major [2]; [6]): 4.10

SMILES: COc1ccc(/C=N/NC(N)=S)cc1OCc1cn(CC(=O)c2ccc(C)cc2)nn1 [CHEMBL4173573]
- Outcome (L. major [1]; [3]): Active
- pIC50 Value (L. major [2]; [4]): 5.66

SMILES: Cl.N=C(c1ccc(N2CCN(c3nnc(-c4ccc([N+](=O)[O-])o4)s3)CC2)cc1)N1CCOCC1 [CHEMBL1783209]
- Outcome (L. major [1]; [5]): Inactive
- pIC50 Value (L. major [2]; [6]): 4.03

SMILES: C[C@@H]1C[C@@]2(O[C@H]3C[C@@]4(C)[C@@H]5C[C@H](O)[C@H]6C(C)(C)[C@@H](O[C@@H]7OC[C@@H](O)[C@@H](O)[C@H]7O)CC[C@@]67C[C@@]57CC[C@]4(C)[C@@H]13)O[C@H](O)[C@]1(C)C[C@H]21 [CHEMBL501026]
- Outcome (L. major [1]; [5]): Inactive
- pIC50 Value (L. major [2]; [6]): 4.19

SMILES: COc1cc(OC)c2c(C)[n+](-c3ccc4scnc4c3)c(C)cc2c1.F[B-](F)(F)F [CHEMBL515117]
- Outcome (L. major [1]; [5]): Inactive
- pIC50 Value (L. major [2]; [6]): 4.00

SMILES: O=[N+]([O-])c1ccc(-c2nc3ccccn3c2-c2ccccc2)cc1 [CHEMBL2151880]
- Outcome (L. major [1]; [5]): Inactive
- pIC50 Value (L. major [2]; [6]): 4.52

SMILES: COc1ccc(/C=N/NC(N)=S)cc1OCc1cn(-c2ccc(S(N)(=O)=O)cc2)nn1 [CHEMBL4165645]
- Outcome (L. major [1]; [3]): Active
- pIC50 Value (L. major [2]; [4]): 5.36

SMILES: O=[N+]([O-])c1ccc(Cn2cc(CNc3nnc(-c4ccc([N+](=O)[O-])o4)s3)nn2)cc1 [CHEMBL1951531]
- Outcome (L. major [1]; [5]): Inactive
- pIC50 Value (L. major [2]; [6]): 4.49

SMILES: O=C(/C=C/c1ccc(-n2ccnc2)cc1)c1ccc(F)c(F)c1 [CHEMBL569571]
- Outcome (L. major [1]; [3]): Active
- pIC50 Value (L. major [2]; [4]): 5.54

SMILES: Cc1csc(C2=NNC(c3cc4ccc(C)cc4nc3Cl)C2)c1 (stereo not shown) [CHEMBL2236137]
- Outcome (L. major [1]; [3]): Active
- pIC50 Value (L. major [2]; [4]): 5.59

SMILES: COc1ccccc1-c1nnc(-c2ccc(C(=O)N/N=C/c3cccc(O)c3O)cc2)o1 [CHEMBL4065149]
- Outcome (L. major [1]; [3]): Active
- pIC50 Value (L. major [2]; [4]): 5.85

SMILES: Cc1ccc2cc(/C=C/C(=O)c3sccc3C)c(Cl)nc2c1 [CHEMBL1940851]
- Outcome (L. major [1]; [3]): Active
- pIC50 Value (L. major [2]; [4]): 5.55

SMILES: COc1ccc(/C=C/C(=O)c2ccc(O)cc2)c(OC)c1 [CHEMBL434066]
- Outcome (L. major [1]; [3]): Active
- pIC50 Value (L. major [2]; [4]): 5.40

SMILES: CCCN1CN(CC(=O)O)CSC1=S [CHEMBL4287780]
- Outcome (L. major [1]; [5]): Inactive
- pIC50 Value (L. major [2]; [6]): 4.41

SMILES: Cl.N=C(N)c1ccc(N2CCN(c3nnc(-c4ccc([N+](=O)[O-])o4)s3)CC2)cc1 [CHEMBL1783200]
- Outcome (L. major [1]; [5]): Inactive
- pIC50 Value (L. major [2]; [6]): 3.95

SMILES: CC(C)(C)OC(=O)N1CCN(c2cc(-c3ccc(Oc4ccccc4)cc3)n[nH]2)CC1 [CHEMBL394241]
- Outcome (L. major [1]; [5]): Inactive
- pIC50 Value (L. major [2]; [6]): 4.89

SMILES: CC(=O)CCCCCCCCCCCC[C@H]1CC[C@@H](O)[C@@H](C)N1 [CHEMBL249464]
- Outcome (L. major [1]; [5]): Inactive
- pIC50 Value (L. major [2]; [6]): 4.12

SMILES: COc1ccccc1-c1nc2ccccn2c1-c1ccccc1 [CHEMBL2151883]
- Outcome (L. major [1]; [5]): Inactive
- pIC50 Value (L. major [2]; [6]): 4.74

SMILES: COc1ccccc1-c1nnc(-c2ccc(C(=O)N/N=C/c3ccccc3C)cc2)o1 [CHEMBL4072556]
- Outcome (L. major [1]; [5]): Inactive
- pIC50 Value (L. major [2]; [6]): 4.47

SMILES: CCOC(=O)c1ccc(-c2nc3ccccn3c2-c2ccccc2)cc1 [CHEMBL2151879]
- Outcome (L. major [1]; [5]): Inactive
- pIC50 Value (L. major [2]; [6]): 4.40

SMILES: Fc1ccc(-c2nc3ccccn3c2-c2ccccc2)cc1 [CHEMBL2151873]
- Outcome (L. major [1]; [5]): Inactive
- pIC50 Value (L. major [2]; [6]): 4.64

SMILES: COc1cc(OC)c2c(C)[n+](-c3ccc(Cl)cc3)c(C)cc2c1.F[B-](F)(F)F [CHEMBL481566]
- Outcome (L. major [1]; [5]): Inactive
- pIC50 Value (L. major [2]; [6]): 4.72

SMILES: CC(C)=CCC/C(C)=C/CC/C(C)=C/COc1ccc2ccc(=O)oc2c1 [CHEMBL156127]
- Outcome (L. major [1]; [5]): Inactive
- pIC50 Value (L. major [2]; [6]): 4.88

SMILES: CCCCN1CSC(=S)N(CC(=O)O)C1 [CHEMBL4278695]
- Outcome (L. major [1]; [5]): Inactive
- pIC50 Value (L. major [2]; [6]): 4.44

SMILES: Cc1ccc2cc(C3CC(c4ccc(I)s4)=NN3)c(Cl)nc2c1 (stereo not shown) [CHEMBL2235716]
- Outcome (L. major [1]; [3]): Active
- pIC50 Value (L. major [2]; [4]): 5.71

SMILES: Ic1c(-c2ccccc2)nc2c(NCCN3CCOCC3)nccn12 [CHEMBL3634359]
- Outcome (L. major [1]; [5]): Inactive
- pIC50 Value (L. major [2]; [6]): 4.97

SMILES: COc1ccccc1-c1nnc(-c2ccc(C(=O)N/N=C/c3ccc(O)cc3O)cc2)o1 [CHEMBL4087969]
- Outcome (L. major [1]; [3]): Active
- pIC50 Value (L. major [2]; [4]): 5.42

SMILES: C[C@@H]1[C@H](O)[C@@H](C)/C=C/C=C/C=C/C=C/C=C/C=C/C=C/[C@H](O[C@@H]2O[C@H](C)[C@@H](O)[C@H](N)[C@@H]2O)C[C@@H]2O[C@](O)(C[C@@H](O)C[C@@H](O)[C@H](O)CC[C@@H](O)C[C@@H](O)CC(=O)O[C@H]1C)C[C@H](O)[C@H]2C(=O)O [CHEMBL267345]
- Outcome (L. major [1]; [5]): Inactive
- pIC50 Value (L. major [2]; [6]): 3.27

SMILES: c1c[nH]c(-c2nc3ccccc3[nH]2)c1 [CHEMBL2298016]
- Outcome (L. major [1]; [3]): Active
- pIC50 Value (L. major [2]; [4]): 5.46

SMILES: CCN1CN(CC(=O)O)CSC1=S [CHEMBL4284377]
- Outcome (L. major [1]; [5]): Inactive
- pIC50 Value (L. major [2]; [6]): 4.48

SMILES: CN1CCN(c2ccnc3cc(Cl)ccc23)CC1 [CHEMBL1255667]
- Outcome (L. major [1]; [5]): Inactive
- pIC50 Value (L. major [2]; [6]): 4.00

SMILES: COc1ccc(/C=N/NC(=O)c2ccccc2OC)cc1O [CHEMBL2382051]
- Outcome (L. major [1]; [5]): Inactive
- pIC50 Value (L. major [2]; [6]): 4.34

SMILES: CCCc1cc(-c2nn3c(-c4ccccc4)nnc3s2)n(CC)n1 [CHEMBL1256824]
- Outcome (L. major [1]; [5]): Inactive
- pIC50 Value (L. major [2]; [6]): 4.00

— article PMC8196580, “Identification of Kaurane-Type Diterpenes as Inhibitors of Leishmania Pteridine Reductase I” (Molecules, 2021)
